As a reminder, the IC50 is the concentration at which inhibition is half-maximal. High values mean lower potency, low ones higher potency.

The target of one experiment is T1, FXR (Homo sapiens, UniProt Q96RI1).
T1 construct: 5 μL of 20 nM FXR-LBD Complete Coregulator buffer G; purchased ThermoFisher PV4833
T1 sequence (Q96RI1 262-486 limits assumed): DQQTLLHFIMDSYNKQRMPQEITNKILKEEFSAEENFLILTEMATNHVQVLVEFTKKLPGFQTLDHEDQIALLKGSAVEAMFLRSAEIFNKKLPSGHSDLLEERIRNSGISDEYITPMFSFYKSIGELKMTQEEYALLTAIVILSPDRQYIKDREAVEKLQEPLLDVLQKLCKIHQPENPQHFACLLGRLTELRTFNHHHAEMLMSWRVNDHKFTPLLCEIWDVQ
In words: FXR antagonist screening by TR-FRET (LanthaScreen TR-FRET FXR co-activation assay kit). In kind it is biochemical. Conditions: Table 1.1, FXR antagonistic activity; TR-FRET with CDCA; geometric means of at least two independent runs. The method, boiled down:
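FXR-LBD (20 nM working solution) mixed with compound, CDCA (200 μM working solution) as agonist, Fluorescein-SRC2-2 and Tb-anti-GST antibody in Coregulator buffer G; 10 h at room temperature. Coactivator recruitment read by TR-FRET, triplicate wells.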
Consider `CCOC(=O)c1oc2ccc(S(=O)(=O)N(CCc3ccccc3)Cc3ccc(C(C)=O)cc3)cc2c1C` [Example M4-38, ethyl 3-methyl-5-(N-(4-acetylbenzyl)-N-phenethylsulfamoyl)benzofuran-2-carboxylate], for which the IC50 lay within 50 to 100 µM. The same measure, in the same setting: as for `CCOC(=O)c1oc2ccc(S(=O)(=O)N(CCc3ccccc3)Cc3ccc(N4CCN(C)CC4)cc3)cc2c1C` [Example M8-80, ethyl 3-methyl-5-(N-(4-(4-methylpiperazin-1-yl)benzyl)-N-phenethylsulfamoyl)benzofuran-2-carboxylate], the figure is 50 to 100 µM. Same read-out and setting: as for `CCOC(=O)c1oc2ccc(S(=O)(=O)N(CCc3ccccc3)Cc3ccc(Br)cc3C(F)(F)F)cc2c1C` [Example M4-59, ethyl 3-methyl-5-(N-(2-trifluoromethyl-4-bromobenzyl)-N-phenethylsulfamoyl)benzofuran-2-carboxylate], the figure is 50 to 100 µM. On the same count and under the same terms, as for `CCOC(=O)c1oc2ccc(S(=O)(=O)N(CCc3ccccc3)Cc3c(F)cccc3Cl)cc2c1C` [Example M4-47, ethyl 3-methyl-5-(N-(2-fluoro-6-chlorobenzyl)-N-phenethylsulfamoyl)benzofuran-2-carboxylate], the figure is 50 to 100 µM; as for `CCOC(=O)c1oc2ccc(S(=O)(=O)N(CCc3ccccc3)Cc3cccc(Br)c3)cc2c1C` [Example M4-22, ethyl 3-methyl-5-(N-(3-bromobenzyl)-N-phenethylsulfamoyl)benzofuran-2-carboxylate], 50 to 100 µM; as for `CCOC(=O)c1oc2ccc(S(=O)(=O)N(CCc3ccccc3)Cc3ccccc3N3CC[N+](C)(C)CC3)cc2c1C` [Example M10-99, 4-(2-((2-(ethoxycarbonyl)-3-methyl-N-benzylethylbenzofuran)-5-sulfonylamino)phenyl)-1,1-dimethylpiperazin-1-ium], 50 to 100 µM. Turning to `CCCOC(=O)N1CCN(c2ccc(N(CCc3ccccc3)S(=O)(=O)c3ccc4oc(C(=O)OCC)c(C)c4c3)cc2)CC1` [Example M8-67, ethyl 3-methyl-5-(N-(4-(4-(propoxycarbonyl)piperazin-1-yl)phenyl)-N-phenethylsulfamoyl)benzo furan-2-carboxylate], the IC50 fell in the range of 50 to 100 µM. The same measure, in the same setting: as for `CCOC(=O)c1oc2ccc(S(=O)(=O)N(CCc3ccccc3)Cc3ccc(F)cc3Cl)cc2c1C` [Example M4-56, ethyl 3-methyl-5-(N-(2-chloro-4-fluorobenzyl)-N-phenethylsulfamoyl)benzofuran-2-carboxylate], the figure is 50 to 100 µM.

Still in this experiment, the particulars now being: Table 1.2, FXR antagonistic activity; TR-FRET with CDCA; geometric means of at least two independent runs.
`Cc1ccc(C)c(C(=O)N2CCN(c3ccccc3N(CCc3ccccc3)S(=O)(=O)c3ccc4oc(C(=O)O)c(C)c4c3)CC2)c1` [Example F27-S137, 5-(N-(2-(4-(2,5-Dimethylbenzoyl)piperazin-1-yl)phenyl)-N-phenethylsulfamoyl)3-methylbenzofuran-2-carboxylic acid] came in with a half-inhibitory concentration (IC50) of 0.1 to 10 µM.

On to `Cc1c(C(=O)O)oc2ccc(S(=O)(=O)N(CCc3ccccc3)c3ccccc3N3CCN(C(=O)c4ccc([N+](=O)[O-])cc4)CC3)cc12` [Example F27-S114, 3-methyl-5-(N-(2-(4-(4-nitrobenzoyl)piperazin-1-yl)phenyl)-N-phenethylsulfamoyl)benzofuran-2-carboxylic acid], for which the IC50 was in the range of 0.1 to 10 µM.

Consider `COc1cccc(OC)c1C(=O)N1CCN(c2ccccc2N(CCc2ccccc2)S(=O)(=O)c2ccc3oc(C(=O)O)c(C)c3c2)CC1` [Example F27-S133, 5-(N-(2-(4-(2,6-dimethoxybenzoyl)piperazin-1-yl)phenyl)-N-phenethylsulfamoyl)3-methylbenzofuran-2-carboxylic acid], for which the IC50 was 0.1 to 10 µM. As to `COc1ccccc1CCN(c1ccccc1N1CCN(C(=O)c2sccc2Br)CC1)S(=O)(=O)c1ccc2sc(C(=O)O)c(C)c2c1` [Example F27-S174, 5-(N-(2-(4-(3-bromothiophene-2-carbonyl)piperazin-1-yl)phenyl)-N-(2-methoxyphenethyl)sulfamoyl)-3-methylbenzothiophene-2-carboxylic acid], the IC50 was in the range of 0.1 to 10 µM. Still for that read-out and setting: as for `Cc1ccsc1C(=O)N1CCN(c2ccccc2N(CCc2ccccc2)S(=O)(=O)c2ccc3oc(C(=O)O)c(C)c3c2)CC1` [Example F27-S141, 5-(N-(2-(4-(3-methylthiophene-2-formyl)piperazin-1-yl)phenyl)-N-phenethylsulfamoyl)3-methylbenzofuran-2-carboxylic acid], the figure is 0.1 to 10 µM; as for `Cc1c(C(=O)O)oc2ccc(S(=O)(=O)N(CCc3ccccc3)c3ccccc3N3CCN(C(=O)c4c[nH]cn4)CC3)cc12` [Example F27-S144, 5-(N-(2-(4-(1H-imidazole-4-formyl)piperazin-1-yl)phenyl)-N-phenethylsulfamoyl)3-methylbenzofuran-2-carboxylic acid], 0.1 to 10 µM. Molecule `CCOC(=O)c1[nH]c2ccc(S(=O)(=O)N(CCc3ccccc3)c3ccccc3N3CCN(C(=O)c4sccc4Br)CC3)cc2c1Cl` [Example M10-161, Ethyl 5-(N-(2-(4-(3-bromothiophene-2-carbonyl)piperazin-1-yl)phenyl)-N-phenethylsulfamoyl)-3-chloro-1H-indole-2-carboxylate] returned an IC50 of 50 to 100 µM. For the molecule `Cc1c(C(=O)O)sc2ccc(S(=O)(=O)Nc3ccccc3N3CCN(C(=O)c4sccc4Br)CC3)cc12` [Example F27-S177, 5-(N-(2-(4-(3-bromothiophene-2-carbonyl)piperazin-1-yl)phenyl)sulfamoyl)-3-toluothiophene-2-carboxylic acid], the IC50 fell in the range of 0.1 to 10 µM. For the molecule `Cc1c(C(=O)O)oc2ccc(S(=O)(=O)N(CCc3ccccc3)c3ccccc3N3CCN(C(=O)c4cc(Br)cs4)CC3)cc12` [Example F27-S127, 5-(N-(2-(4-(4-bromothiophene-2-carbonyl)piperazin-1-yl)phenyl)-N-phenethylsulfamoyl)-3-methyl benzofuran-2-carboxylic acid], the IC50 is 0.1 to 10 µM. `Cc1c(C(N)=O)oc2ccc(S(=O)(=O)N(CCc3ccccc3)c3ccccc3N3CCN(C(=O)c4sccc4Br)CC3)cc12` [Example F27-S178, 5-(N-(2-(4-(3-bromothiophene-2-formyl)piperazin-1-yl)phenyl)-N-phenethylsulfamoyl)3-methylbenzofuran-2-carboxamide] came in with an IC50 of 0.1 to 10 µM. Same read-out and setting: as for `Cc1c(C(=O)O)sc2ccc(S(=O)(=O)N(CCc3ccccc3[N+](=O)[O-])c3ccccc3N3CCN(C(=O)c4sccc4Br)CC3)cc12` [Example F27-S175, 5-(N-(2-(4-(3-bromothiophene-2-carbonyl)piperazin-1-yl)phenyl)-N-(2-nitrophenylethyl)sulfamoyl)-3-toluothiophene-2-carboxylic acid], the figure is 0.1 to 10 µM. Take `CCOC(=O)c1oc2ccc(S(=O)(=O)N(CCc3ccccc3)c3ccccc3N3CCN(C(=O)c4c(OC)cccc4OC)CC3)cc2c1C` [Example M10-133, Ethyl 5-(N-(2-(4-(2,6-Dimethoxybenzoyl)piperazin-1-yl)phenyl)-N-phenethylsulfamoyl)3-methylbenzofuran-2-carboxylate]: the IC50 is 50 to 100 µM. `CCOC(=O)c1sc2ccc(S(=O)(=O)N(CCc3ccc(C(F)(F)F)cc3)c3ccccc3N3CCN(C(=O)c4sccc4Br)CC3)cc2c1C` [Example M10-169, Ethyl 5-(N-(2-(4-(3-bromothiophene-2-carbonyl)piperazin-1-yl)phenyl)-N-(4-(trifluoromethyl)phenethyl)sulfamoyl)-3-methylbenzothiophene-2-carboxylate] gave an IC50 of 50 to 100 µM. With `Cc1c(C(=O)O)oc2ccc(S(=O)(=O)N(CCc3ccccc3)c3ccccc3N3CCN(C(=O)c4cnco4)CC3)cc12` [Example F27-S131, 3-methyl-5-(N-(2-(4-(oxazole-5-carbonyl)piperazin-1-yl)phenyl)-N-phenethylsulfamoyl)benzofuran-2-carboxylic acid], the IC50 was 0.1 to 10 µM. `Cc1c(C(=O)O)sc2ccc(S(=O)(=O)N(Cc3ccccc3)c3ccccc3N3CCN(C(=O)c4sccc4Br)CC3)cc12` [Example F27-S181, 5-(N-benzyl-N-(2-(4-(3-bromothiophene-2-carbonyl)piperazin-1-yl)phenyl)sulfamoyl)-3-methylbenzothiophene-2-carboxylic acid] returned an IC50 of 0.1 to 10 µM. The molecule `CCOC(=O)c1oc2ccc(S(=O)(=O)N(CCc3ccccc3)c3ccccc3N3CCN(C(=O)c4sccc4Br)C[C@H]3C)cc2c1C` [Example M10-153, (R)-ethyl-5-(N-(2-(4-(3-bromothiophene-2-carbonyl)-2-methylpiperazin-1-yl)phenyl)-N-phenethylsulfamoyl)-3-methylbenzofuran-2-carboxylate] had an IC50 of 50 to 100 µM. The same measure, in the same setting: as for `CCOC(=O)c1oc2ccc(S(=O)(=O)N(CCc3ccccc3)c3ccccc3N3CCN(C(=O)c4c[nH]cn4)CC3)cc2c1C` [Example M10-144, Ethyl 5-(N-(2-(4-(1H-imidazole-4-carbonyl)piperazin-1-yl)phenyl)-N-phenethylsulfamoyl)3-methylbenzofuran-2-carboxylate], the figure is 50 to 100 µM; as for `Cc1c(C(=O)O)n(C)c2ccc(S(=O)(=O)N(CCc3ccccc3)c3ccccc3N3CCN(C(=O)c4sccc4Br)CC3)cc12` [Example F27-S179, 5-(N-(2-(4-(3-bromothiophene-2-carbonyl)piperazin-1-yl)phenyl)-N-phenethylsulfamoyl)-1,3-dimethyl-1H-indole-2-carboxylic acid], 0.1 to 10 µM; as for `O=C(O)c1cc2ccc(S(=O)(=O)N(CCc3ccccc3)c3ccccc3N3CCN(C(=O)c4sccc4Br)CC3)cc2o1` [Example F27-S164, 6-(N-(2-(4-(3-bromothiophene-2-formyl)piperazin-1-yl)phenyl)-N-phenethylsulfamoyl)benzofuran-2-carboxylic acid], 0.1 to 10 µM.

The values above are taken from patent US20240239775A1, “FXR REGULATOR, PREPARATION METHOD THEREFOR, PHARMACEUTICAL COMPOSITION THEREOF AND USE THEREOF” (QINGDAO RUIJI MEDICAL TECHNOLOGY CO., LTD., priority 2021, published 2024).
